Key:
Format in all cases: functional, cell-based
[1] = test system: KB; experiment: Antiproliferative activity against human KB cells
[2] = test system: HepG2; experiment: Antiproliferative activity against human HepG2 cells
[3] = test system: HeLa; experiment: Antiproliferative activity against human HeLa cells assessed as reduction in cell viability
[4] = test system: HCT-116; experiment: Antiproliferative activity against human HCT-116 cells assessed as reduction in cell viability; details: Homo sapiens, HCT-116
[5] = test system: HCT-116; experiment: Antiproliferative activity against human HCT-116 cells
[6] = test system: MV4-11; experiment: Antiproliferative activity against human MV4-11 cells
[7] = test system: A549; experiment: Antiproliferative activity against human A549 cells
[8] = Antiproliferative activity against mouse P388 cells assessed as reduction in cell viability measured after 72 hrs; details: time 72 hrs
[9] = test system: P388/ADR; experiment: Antiproliferative activity against mouse P388/ADR cells assessed as reduction in cell viability measured after 72 hrs; details: time 72 hrs
[10] = test system: HL-60; experiment: Antiproliferative activity against human HL-60 cells assessed as reduction in cell viability measured after 72 hrs; details: HL-60, time 72 hrs
[11] = test system: A-431; experiment: Antiproliferative activity against human A-431 cells
[12] = test system: PC-3; experiment: Antiproliferative activity against human PC-3 cells
[13] = test system: COLO 205; experiment: Antiproliferative activity against human COLO 205 cells
[14] = test system: HEK293; experiment: Antiproliferative activity against human HEK293 cells
[15] = test system: K562; experiment: Antiproliferative activity against human K562 cells
[16] = test system: MDA-MB-231; experiment: Antiproliferative activity against human MDA-MB-231 cells; details: Homo sapiens, MDA-MB-231
[17] = test system: HT-29; experiment: Antiproliferative activity against human HT-29 cells assessed as reduction in cell viability
[18] = test system: MDA-MB-231; experiment: Antiproliferative activity against human MDA-MB-231 cells assessed as reduction in cell viability
[19] = test system: P388; experiment: Anticancer activity against mouse P388 cells
[20] = test system: MCF7; experiment: Anticancer activity against human MCF7 cells assessed as inhibition of cell growth
[21] = test system: MCF7; experiment: Anticancer activity against human MCF7 cells
[22] = Anticancer activity against human Lu1 cells
[23] = test system: HL-60; experiment: Anticancer activity against human HL-60 cells

## Cc1cn([C@H]2C[C@H](n3cc(CNC(=O)CC(C)CC(=O)O[C@@H]4O[C@@H]5O[C@@]6(C)CC[C@H]7[C@H](C)CC[C@@H]([C@H]4C)[C@@]57OO6)nn3)[C@@H](CO)O2)c(=O)[nH]c1=O (some centres not stated)
[1]
  IC50: 47.6 µM
[2]
  IC50: 47.6 µM

## C[C@H]1[C@@H](CCCOP(=O)(Oc2ccccc2)Oc2ccccc2)O[C@@H]2O[C@@]3(C)CC[C@H]4[C@H](C)CC[C@@H]1[C@@]24OO3
[3]
  IC50: 3.82 µM
[4]
  IC50: 3.82 µM

## C[C@H]1[C@@H](OC(=O)CCC(=O)NCCCNc2c3ccccc3nc3c2[nH]c2ccccc23)O[C@@H]2O[C@@]3(C)CC[C@H]4[C@H](C)CC[C@@H]1[C@@]24OO3
[5]
  IC50: 0.286 µM
[6]
  IC50: 0.286 µM
[7]
  IC50: 0.286 µM

## CC(C)N1CCN(C(=O)CCC(=O)O[C@@H]2O[C@@H]3O[C@]4(C)CC[C@H]5[C@H](C)CC[C@@H]([C@H]2C)[C@@]35OO4)CC1
[8]
  GI50: 0.231 µM
[9]
  GI50: 0.231 µM
[10]
  GI50: 0.231 µM

## C[C@H]1[C@@H](CC(COP(=O)(O)Oc2ccccc2)C[C@H]2O[C@@H]3O[C@]4(C)CC[C@H]5[C@H](C)CC[C@@H]([C@H]2C)[C@@]35OO4)O[C@@H]2O[C@@]3(C)CC[C@H]4[C@H](C)CC[C@@H]1[C@@]24OO3 (some centres not stated)
[3]
  IC50: 0.04 µM
[4]
  IC50: 0.04 µM

## C[C@H]1[C@@H](OCc2cn(-c3ccc(C#N)cc3)nn2)O[C@@H]2O[C@]3(C)OO[C@]24[C@H]1CC[C@@H](C)[C@@H]4C[C@H]3O
[11]
  IC50: 25.3 µM
[12]
  IC50: 25.3 µM
[13]
  IC50: 25.3 µM
[14]
  IC50: 25.3 µM
[15]
  IC50: 25.3 µM
[7]
  IC50: 25.3 µM
[16]
  IC50: 25.3 µM

## C[C@H]1[C@@H](OCCn2cc(COc3cccc(O)c3)nn2)O[C@@H]2O[C@@]3(C)CC[C@H]4[C@H](C)CC[C@@H]1[C@@]24OO3
[11]
  IC50: 18 µM
[12]
  IC50: 18 µM
[13]
  IC50: 18 µM
[14]
  IC50: 18 µM
[15]
  IC50: 18 µM
[7]
  IC50: 18 µM
[16]
  IC50: 18 µM

## C[C@H]1[C@H](OC(=O)CCC(=O)N2CCN(c3ccccc3)CC2)O[C@@H]2O[C@]3(C)CC[C@H]4[C@H](C)CC[C@@H]1[C@@]24OO3
[8]
  GI50: 0.231 µM
[9]
  GI50: 0.231 µM
[10]
  GI50: 0.231 µM

## CC(=O)c1cccc(-n2cc(CO[C@H]3O[C@@H]4O[C@]5(C)OO[C@]46[C@@H](CC[C@@H](C)[C@@H]6C[C@H]5O)[C@H]3C)nn2)c1
[11]
  IC50: 25.3 µM
[12]
  IC50: 25.3 µM
[13]
  IC50: 25.3 µM
[14]
  IC50: 25.3 µM
[15]
  IC50: 25.3 µM
[7]
  IC50: 25.3 µM
[16]
  IC50: 25.3 µM

## C[C@H]1[C@H](OC(=O)CCC(=O)N2CCN(C)CC2)O[C@@H]2O[C@]3(C)CC[C@H]4[C@H](C)CC[C@@H]1[C@@]24OO3
[8]
  GI50: 0.231 µM
[9]
  GI50: 0.231 µM
[10]
  GI50: 0.231 µM

## C[C@H]1[C@@H](OCC(O)Cn2cc(-c3cccc(N)c3)nn2)O[C@@H]2O[C@@]3(C)CC[C@H]4[C@H](C)CC[C@@H]1[C@@]24OO3 (some centres not stated)
[1]
  IC50: 12.5 µM
[2]
  IC50: 32.9 µM

## COC(=O)c1ccc2c(c1)c(NCC(O)CNC(=O)CCC(=O)O[C@H]1O[C@@H]3O[C@@]4(C)CC[C@H]5[C@H](C)CC[C@@H]([C@H]1C)[C@@]35OO4)c1c3ccccc3nc-1n2C (some centres not stated)
[5]
  IC50: 0.072 µM
[6]
  IC50: 0.072 µM
[7]
  IC50: 0.072 µM

## Cc1cn(C2C[C@H](n3cc(CNC(=O)C(C)CC(=O)O[C@@H]4O[C@@H]5O[C@@]6(C)CC[C@H]7[C@H](C)CC[C@@H]([C@H]4C)[C@@]57OO6)nn3)[C@@H](CO)O2)c(=O)[nH]c1=O (single isomer, unassigned)
[1]
  IC50: 47.6 µM
[2]
  IC50: 47.6 µM

## Cc1cn(C2C[C@H](n3cc(COC(=O)CCC(=O)O[C@@H]4O[C@@H]5O[C@@]6(C)CC[C@H]7[C@H](C)CC[C@@H]([C@H]4C)[C@@]57OO6)nn3)[C@@H](CO)O2)c(=O)[nH]c1=O (single isomer, unassigned)
[1]
  IC50: 16.5 µM
[2]
  IC50: 16.5 µM

## COc1cccc2c1C(=O)c1c(O)c3c(c(O)c1C2=O)C[C@@](O)(C(=O)CO)C[C@@H]3O[C@H]1C[C@H](N)[C@H](O)[C@H](C)O1 [DOXORUBICIN]
[11]
  IC50: 1.43 µM
[12]
  IC50: 1.43 µM
[13]
  IC50: 1.43 µM
[17]
  IC50: 0.05 µM
[18]
  IC50: 0.05 µM
[8]
  GI50: 0.0087 µM
[14]
  IC50: 1.43 µM
[15]
  IC50: 1.43 µM
[9]
  GI50: 3.73 µM
[10]
  GI50: 0.0087 µM
[4]
  IC50: 0.05 µM
[16]
  IC50: 1.43 µM

## Cc1c2ccncc2c(C)c2c1[nH]c1ccccc12 [ELLIPTECINE]
[19]
  IC50: 1.7 µM
[20]
  IC50: 1.7 µM
[1]
  IC50: 0.81 µM
[21]
  IC50: 1.7 µM
[22]
  IC50: 1.7 µM
[2]
  IC50: 0.93 µM
[23]
  IC50: 1.7 µM
